Measurements as given in PubChem BioAssay (NCI).
“And” between values parts separate entries of the source, which are not always exact repeats. Equal values may be shown once.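 Results reflect a 48-hour exposure of cells in 96-well plates to compound at five concentrations. GI50 marks 50% less growth. TGI is the concentration that stops growth completely.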 Where a SMILES comes first, the peptide text is derived from it. [ ]: non-standard residue; d: D form. The star is where a group is joined. ξ: configuration not given here. NMeY = CN[C@@H](Cc1ccc(O)cc1)C(=O)O; Cbz = O=C(OCc1ccccc1)*; ξA = CC(N)C(=O)O

Columns and labels:
Assay in all cases: inhibition of tumour cell growth, NCI panel, 48 h
NCI/ADR-RES ovarian = tested on: NCI/ADR-RES ovarian
SNB-19 CNS = tested on: SNB-19 CNS
BT-549 breast = tested on: BT-549 breast
UACC-62 melanoma = tested on: UACC-62 melanoma
CCRF-CEM leukemia = tested on: CCRF-CEM leukemia
RXF 393 renal = tested on: RXF 393 renal
SNB-75 CNS = tested on: SNB-75 CNS
SF-268 CNS = tested on: SF-268 CNS
786-0 renal = tested on: 786-0 renal
NCI-H23 lung = tested on: NCI-H23 lung
OVCAR-5 ovarian = tested on: OVCAR-5 ovarian

SMILES | TGI (NCI/ADR-RES ovarian) | TGI (SNB-19 CNS) | TGI (BT-549 breast) | TGI (UACC-62 melanoma) [µM] | TGI (CCRF-CEM leukemia) | TGI (RXF 393 renal) | TGI (SNB-75 CNS) | TGI (SF-268 CNS) | TGI (786-0 renal) | TGI (NCI-H23 lung) | TGI (OVCAR-5 ovarian) | GI50 (NCI/ADR-RES ovarian) [µM] | GI50 (SNB-19 CNS) [µM] | GI50 (BT-549 breast) [µM] | GI50 (CCRF-CEM leukemia) [µM] | GI50 (RXF 393 renal) [µM] | GI50 (SNB-75 CNS) [µM] | GI50 (SF-268 CNS) [µM] | GI50 (OVCAR-5 ovarian) [µM]
COc1ccc2nc3cccc([N+](=O)[O-])c3c(NCCC(=O)O)c2c1 | > 10 µM | > 10 µM | > 10 µM | > 10 | > 10 µM | > 10 µM | > 10 µM | > 10 µM | > 10 µM | > 10 µM | > 10 µM |  |  |  |  |  |  |  | 
CN(C)c1n2c3ccc([N+](=O)[O-])cc3n3c(N(C)C)[n+]4ccccc4c3c2c2cccc[n+]12 | > 100 µM | > 100 µM | > 100 µM | > 100 | > 100 µM | > 100 µM | > 100 µM | > 100 µM | > 100 µM | > 100 µM | > 100 µM |  |  |  |  |  |  |  | 
O=C1c2ccccc2C(=O)c2c1oc1cc(O)c(Cl)cc21 | 45.4 µM | 28 µM | 15.5 µM | 4.32 | 55.3 µM | 24.5 µM | 10.4 µM | 31.9 µM | 20.9 µM | 3.27 µM | 23.9 µM |  |  |  |  |  |  |  | 
N#CCCC1(CCC#N)S(=O)(=O)OCCOS1(=O)=O | > 100 µM | > 100 µM | > 100 µM | > 100 | > 100 µM | > 100 µM | > 100 µM | > 100 µM | > 100 µM | > 100 µM | > 100 µM |  |  |  |  |  |  |  | 
CN1C(=O)C(=Cc2ccc(Br)cc2)C(=O)N(C)C1=O | > 100 µM | > 100 µM | > 100 µM | > 100 | > 100 µM | > 100 µM | > 100 µM | > 100 µM | > 100 µM | > 100 µM | > 100 µM |  |  |  |  |  |  |  | 
COc1ccc(C[C@H]2COC(=O)[C@@H]2Cc2ccc(Br)cc2)cc1OC | > 100 µM | > 61.8 µM | 84.2 µM | 96.8 | > 100 µM | > 62.8 µM | 85.1 µM | > 31.6 µM | > 100 µM | > 100 µM | > 100 µM |  |  |  |  |  |  |  | 
C=CC(C)(C)NC(C(=O)N1CCC[C@H]1c1nc(-c2nc(C(=O)OCC=C(C)C)c(C)o2)c(C)o1)C(C)C (stereo partly specified) | > 100 µM | > 100 µM | > 100 µM | > 60.9 | > 100 µM | > 91.4 µM | > 100 µM | > 100 µM | > 100 µM | > 100 µM | > 100 µM |  |  |  |  |  |  |  | 
CO[P@@]1(=O)O[C@@H](c2ccccc2)[C@H](O)[C@@]1(O)c1ccccc1 | > 100 µM | > 100 µM | > 100 µM | > 100 | > 100 µM | > 100 µM | > 100 µM | > 100 µM | > 100 µM | > 100 µM | > 100 µM |  |  |  |  |  |  |  | 
COc1ccc2nc3c4c(nccc4c2c1)-c1ncccc1C3=O | 7.62 µM | 0.279 µM | 0.528 µM | 0.159 | 2.57 µM | 1.02 µM | 0.378 µM | 3.96 µM | 0.208 µM | 0.265 µM | 2.1 µM |  |  |  |  |  |  |  | 
Nc1c(F)c(F)c2c(c1F)N(CCCCCl)c1ccccc1S2 | > 100 µM | > 100 µM | > 100 µM | > 100 | > 100 µM | > 100 µM | > 100 µM | > 100 µM | > 100 µM | > 100 µM | > 100 µM |  |  |  |  |  |  |  | 
c1ccc2c(c1)nc1ccccn12 | > 100 µM | > 100 µM | > 100 µM | > 100 | > 100 µM | > 100 µM | > 100 µM | > 100 µM | > 100 µM | > 100 µM | > 100 µM |  |  |  |  |  |  |  | 
O=S(=O)(O)c1c(Cl)c(Cl)c(O)c2ncccc12 | 49.7 µM | 44.1 µM | 67.3 µM | 29.7 | 31.7 µM | 44.5 µM | 39.3 µM | 13.8 µM | 21.1 µM | 29.6 µM | 42 µM |  |  |  |  |  |  |  | 
Cc1c2c(n3c(nc4ccccc43)c1C#N)N(c1ccc(F)cc1)CC2 | > 100 µM | > 100 µM | > 100 µM | > 100 | > 100 µM | > 100 µM | > 100 µM | > 100 µM | > 100 µM | > 100 µM | > 100 µM |  |  |  |  |  |  |  | 
COc1ccc(C[C@@H](C(=O)N[C@@H](C)C(N)=O)N(C)C(=O)[C@@H]2CCCN2C(=O)[C@H](CC(C)C)NC(=O)C(C)NC(=O)OCc2ccccc2)cc1 (stereo partly specified) (Cbz-[ξA]LP[NMeY](Me)A-NH2) | > 100 µM | > 100 µM | > 100 µM | > 100 | > 100 µM | > 100 µM | > 100 µM | > 100 µM | > 100 µM | > 100 µM | > 100 µM |  |  |  |  |  |  |  | 
COC(=O)CN1Cc2cc(C)cc(c2O)CN(CC(=O)OC)Cc2cc(C)cc(c2O)CN(CC(=O)OC)Cc2cc(C)cc(c2O)CN(CC(=O)OC)Cc2cc(C)cc(c2O)C1 | 50 µM and 64 µM | 50 µM and > 100 µM | 50 µM and 77.7 µM | > 100 | 50 µM and 33.2 µM | 28.6 µM and > 100 µM | 50 µM and > 100 µM | 50 µM and > 100 µM | 50 µM and > 100 µM | 50 µM and > 100 µM | 50 µM and > 100 µM | 21.9 | 18.3 | 15.3 | 5.37 | 36.1 | 42.5 | > 100 | 5.26
CC(C)N(C(C)C)S(=O)(=O)CC12CCC(C/C1=N\O)C2 (stereo unspecified) | > 100 µM | > 100 µM | > 100 µM | > 100 | > 100 µM | > 100 µM | > 100 µM | > 100 µM | > 100 µM | > 100 µM | > 100 µM |  |  |  |  |  |  |  | 
CC(=O)Oc1ccc2c(c1)[nH]c1c3ccc(OC(C)=O)cc3oc(=O)c21 | > 100 µM | > 100 µM | 68.2 µM | > 100 | 98.8 µM | 68.2 µM | > 100 µM | 75 µM | > 100 µM | > 100 µM | > 100 µM |  |  |  |  |  |  |  | 
OC1C2CCCCN2C[C@@H](O)[C@H]1O (stereo partly specified) | > 100 µM | > 100 µM | > 100 µM | > 100 | > 100 µM | > 100 µM | > 100 µM | > 100 µM | > 100 µM | > 100 µM | > 100 µM |  |  |  |  |  |  |  | 
